Legend:
[1] = tested on: SD rats with acute pancreatitis induced by caerulein; test: Acute pancreatitis induced by caerulein in rats; assay type: in vivo; conditions: 10 mg/kg, 30 minutes before 40 μg/kg caerulein, pancreas extracted after 2 hours
Description: In 6-week-old SD rats, it was confirmed whether punicalagin has an effect of alleviating symptoms of acute pancreatitis induced by caerulein.
Specifically, […], and after 30 minutes, 40 μg/kg of caerulein, which is an acute pancreatitis-inducing substance, was intraperitoneally injected, and then, after 2 hours, the pancreas of the experimental animals was extracted and analyzed.
First, the weight of the extracted pancreas was measured to determine whether punicalagin inhibits edema, which is a symptom of acute pancreatitis. As a result, it was confirmed that when 10 mg/kg punicalagin was administered to […], in which acute pancreatitis was induced by caerulein, the edema of the pancreas was inhibited by 95% or more (panel A of FIG. 8).
Next, as a result of observing the nucleus and cytoplasm of the extracted pancreatic tissue with a microscope through H&E staining in order to confirm the damage to pancreatic cells by caerulein, it was confirmed that in the rats administered with caerulein, the distance between pancreatic cells was increased and the cells were damaged due to symptoms of acute pancreatitis.

[2] = tested on: C57BL6N mice with pruritus induced by PAR2-AP; test: Pruritus induced by PAR2-AP in mice (number of scratches); assay type: in vivo
Description: In seven-week-old C57BL6N mice, it was confirmed whether punicalagin (PG) has an effect of alleviating pruritus symptoms induced by PAR2 receptor activation by PAR2-AP (activating peptide). In addition, the effects of punicalin (PNC) and ellagic acid (EA), which are metabolites of punicalagin and contained in pomegranate peel in a large amount, were also confirmed.
Specifically, each of 0, 1, 3, and 10 mg/kg punicalagin (n=4) was dissolved in physiological saline and intraperitoneally injected, and after 30 minutes, 100 μg of PAR2-AP was intradermally injected to induce pruritus. As control groups, a group which was intraperitoneally injected with physiological saline only (n=4) and a group which was intraperitoneally injected with 10 mg/kg punicalagin (n=4) were established, and the number of scratches was measured for 40 minutes.

[3] = biological target: T1, PAR2 (Homo sapiens, UniProt P55085); test: Increase of intracellular calcium ions by PAR2-AP in HT-29 cells (Fluo4-NW); assay type: cell-based; parameters: endogenous in cells; host or cells: HT-29 colon cancer cells
T1 sequence (P55085 26-397): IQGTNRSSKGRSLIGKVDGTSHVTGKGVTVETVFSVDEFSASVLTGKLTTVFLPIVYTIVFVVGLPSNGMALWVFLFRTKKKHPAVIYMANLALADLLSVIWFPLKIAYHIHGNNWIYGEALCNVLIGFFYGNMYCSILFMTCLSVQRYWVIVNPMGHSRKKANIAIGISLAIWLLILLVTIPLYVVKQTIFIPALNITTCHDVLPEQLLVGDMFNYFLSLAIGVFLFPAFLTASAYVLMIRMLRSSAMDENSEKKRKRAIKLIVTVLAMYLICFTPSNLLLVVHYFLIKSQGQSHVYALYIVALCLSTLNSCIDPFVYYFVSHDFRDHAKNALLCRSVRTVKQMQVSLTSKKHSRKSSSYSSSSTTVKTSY
Description: After colon cancer cells (HT-29) were cultured for 48 hours in a 96-well micro plate with the RPMI1640 culture medium, the culture medium was removed, and then, 100 μL of the Flou4-NW dye mixture was added. While blocking the light, it was stabilized for 1 hour such that a calcium ion dye (Ca^2+ dye) was loaded into the cells. Next, after treating punicalin (0, 3, 10, and 30 μM), punicalagin (0, 0.3, 1, 2, 3, and 10 μM), or ellagic acid (0, 30, and 100 μM) for 10 minutes by concentration, each well was treated with 30 μM PAR2-AP (PAR2-activating peptide, SLIGRL-NH2) to measure the concentration change in intracellular calcium ions.

[4] = biological target: T1, PAR2; test: Intracellular calcium increase by trypsin (PAR2 receptor activation) in HaCaT keratinocytes; assay type: cell-based; parameters: endogenous in cells; host or cells: HaCaT keratinocytes; conditions: HaCaT, 0.1 μM trypsin, 10 minutes pretreatment
Description: After keratinocytes (HaCaT) were cultured for 48 hours in a 96-well micro plate with the DMEM culture medium, the culture medium was removed, and then, 100 μL of the Flou4-NW dye mixture was added. While blocking the light, it was stabilized for 1 hour such that a calcium ion dye (Ca^2+ dye) was loaded into the cells. 100 μM punicalagin was treated, and the concentration change of intracellular calcium ions was measured for 5 minutes (panel A of FIG. 17). Next, punicalin (0, 1, 3, 10, 20, 30, 100, and 300 μM) by concentration (panel B of FIG. 17) or punicalagin (0, 1, 3, 5, 10, 20, 30, and 100 μM) by concentration (panel C of FIG. 17) was treated for 10 minutes, and then, each well was treated with 0.1 μM trypsin to measure the concentration change of intracellular calcium ions according to PAR2 receptor activation.

Row | inhibition of the PAR2 receptor ([3]; HT-29 cells, PAR2-AP, high concentration (100 μM)) | inhibitory effect on the PAR2 receptor ([3]; found by compound library search and molecular physiological experiments) | SMILES | inhibition of edema of the pancreas (pancreas weight) [1] | numbers of scratches ([2]; 3 mg/kg ellagic acid group (n=3)) | number of scratches for 40 minutes ([2]; 10 mg/kg, PAR2-AP group about 240) | inhibition of PAR2 receptor activity by trypsin [4]
1 | did not inhibit | – | O=c1oc2c(O)c(O)cc3c(=O)oc4c(O)c(O)cc1c4c23 [ellagic acid, reference compound] | not significantly inhibited | not significantly reduced | – | –
2 | – | relatively weak inhibitory effect | O=C1OC[C@H]2OC(O)[C@H](O)[C@@H](O)[C@@H]2OC(=O)c2cc(O)c(O)c(O)c2-c2c(O)c(O)c3oc(=O)c4c(c(O)c(O)c5oc(=O)c2c3c54)-c2c1cc(O)c(O)c2O (mixture of isomers) [punicalin, reference compound] | – | – | about 197 times | inhibited PAR2 receptor activity by trypsin in a concentration-dependent manner
